{
  "source": "patent US11382985B2",
  "about": "“Anti-tumour immune responses to modified self-epitopes” (Scancell Limited, priority 2015, dated 2022)",
  "key": {"splenocytes [1]": {"test_system": "splenocytes", "experiment": "Screening of citrullinated Enolase peptide pools, ex vivo IFNγ Elispot, DR4 mice", "format": "in vivo, transgenic DR4 mouse", "details": "single immunisation with pool of 4-6 human citrullinated peptides, 20 μg each, CpG/MPLA, day 14, label = peptide used for restimulation", "procedure": "C57BL/6 mice (Charles River, UK), HLA-DR4 mice (Taconic, USA), HHDII/DR1 mice (Pasteur institute, France) and the HHD/HLA-DP4 transgenic strain of mouse as described in patent WO2013/017545 A1 (EMMA repository, France) were used, aged between 8 and 12 weeks, and cared for by the staff at Nottingham Trent University. All work was carried out under a Home Office project licence. Peptides were dissolved in PBS to 1 mg/ml and then emulsified (a series of dilutions) with different adjuvants: CpG and MPLA 6 μg/mouse of each (Invivogen, UK), Incomplete Freund's 50 μl/mouse (Sigma, UK), poly I:C 10 μg/mouse (Invivogen, UK), Imiquimod 25 μg/mouse (Invivogen, UK) and GMCSF 10 μg/mouse (Peprotech, UK). […]\nElispot assays were performed using murine IFNγ, IL-17 and IL-10 capture and detection reagents according to the manufacturer's instructions (Mabtech, Sweden). […] After incubation, captured IFN and IL-10 were detected by biotinylated anti-IFNγ and IL-10 antibodies and developed with a streptavidin alkaline phosphatase and chromogenic substrate. Spots were analysed and counted using an automated plate reader (Cellular Technologies Ltd).\nScreening was performed to identify potential citrullinated Enolase epitopes in mice. […] After 14 days the mice were culled and the immune responses to each peptide within the immunising pool were assessed by ex vivo Elispot (FIG. 2). […]"}, "B16DR4 tumour": {"test_system": "B16DR4 tumour", "experiment": "B16DR4 melanoma tumour challenge", "format": "in vivo, DR4 mice", "procedure": "(§1) C57BL/6 mice (Charles River, UK), HLA-DR4 mice (Taconic, USA), HHDII/DR1 mice (Pasteur institute, France) and the HHD/HLA-DP4 transgenic strain of mouse as described in patent WO2013/017545 A1 (EMMA repository, France) were used, aged between 8 and 12 weeks, and cared for by the staff at Nottingham Trent University. All work was carried out under a Home Office project licence. Peptides were dissolved in PBS to 1 mg/ml and then emulsified (a series of dilutions) with different adjuvants: CpG and MPLA 6 μg/mouse of each (Invivogen, UK), Incomplete Freund's 50 μl/mouse (Sigma, UK), poly I:C 10 μg/mouse (Invivogen, UK), Imiquimod 25 μg/mouse (Invivogen, UK) and GMCSF 10 μg/mouse (Peprotech, UK). Peptides (25 μg/mouse) were injected subcutaneously at the base of the tail. DNA (1 μg/mouse) was coated onto 1.0 μm gold particles (BioRad, Hemel Hempstead, UK) using the manufacturer's instructions and administered intradermally by genegun (BioRad). Homspera (10 nM/mouse) (PeptideSynthetics, UK) was injected intradermally with genegun immunisation. Mice were immunized at either day 0 for peptide immunisation or days, 0 and 7 for genegun immunisation, unless otherwise stated. Spleens were removed for analysis at day 14 for peptide and day 20 for peptide or genegun immunisation unless stated otherwise.\n(§2) For tumour challenge experiments mice were challenged with 2.5×10^4 B16 DR4 cells or 1×10^6 LLC2/LLC2 DR4 cells, 2.5×10^5 Pan02 DR4 cells in matrigel or 4×10^5 B16 HHDII DP4 cells subcutaneously on the right flank 3 days prior to primary immunisation and then were immunised as above. Tumour growth was monitored at 3-4 days intervals and mice were humanely euthanized once tumour reached ≥10 mm in diameter."}, "B16DP4 tumour": {"test_system": "B16DP4 tumour", "experiment": "B16DP4 melanoma tumour challenge", "format": "in vivo, DP4 transgenic mice", "details": "peptide immunisation after B16DP4 implant; unimmunized 10%", "procedure": "as §1, with “Homspera (10 nM/mouse) (PeptideSynthetics, UK) was injected intradermally with genegun immunisation. Mice were immunized at either day 0 for peptide immunisation or days, 0 and 7 for genegun immunisation, unless otherwise stated. Spleens were removed for analysis at day 14 for peptide and day 20 for peptide or genegun immunisation unless stated otherwise.” left out\nas §2"}, "B16iDR4": {"test_system": "B16iDR4", "experiment": "B16 tumour with IFNγ inducible DR4 (B16iDR4) challenge", "format": "in vivo, DR4 mice", "procedure": "as §1\nFor tumour challenge experiments mice were challenged with 2.5×10^4 B16 DR4 cells or 1×10^6 LLC2/LLC2 DR4 cells, 2.5×10^5 Pan02 DR4 cells in matrigel or […] above. Tumour growth was monitored at 3-4 days intervals and mice were humanely euthanized once tumour reached ≥10 mm in diameter."}, "parental LLC2 tumour": {"test_system": "parental LLC2 tumour", "experiment": "Parental Lewis lung carcinoma LLC2 challenge", "format": "in vivo, DR4 mice", "details": "challenge four days before peptide immunisation", "procedure": "as §1, with “Mice were immunized at either day 0 for peptide immunisation or days, 0 and 7 for genegun immunisation, unless otherwise stated. Spleens were removed for analysis at day 14 for peptide and day 20 for peptide or genegun immunisation unless stated otherwise.” left out\nFor tumour challenge experiments mice were challenged with 2.5×10^4 B16 DR4 cells or 1×10^6 LLC2/LLC2 DR4 cells, […] above. Tumour growth was monitored at 3-4 days intervals and mice were humanely euthanized once tumour reached ≥10 mm in diameter."}, "Pan02 DR4": {"test_system": "Pan02 DR4", "experiment": "Pan02 DR4 pancreatic tumour challenge", "format": "in vivo, DR4 transgenic mice", "details": "peptide immunisation 4 days after tumour challenge; none of unimmunized survived"}, "PBMCs [2]": {"test_system": "PBMCs", "experiment": "CFSE proliferation assay on PBMCs", "format": "cell-based, human", "details": "Donor 4, day 10", "procedure": "PBMC were isolated from freshly drawn heparinised blood by Ficol-Hypaque (Sigma) gradient centrifugation. PBMC (1.5×10^6 cells/well) were stimulated with single peptides (final concentration 10 μg/ml) in RPMI containing 5% pooled autologous human serum, 2 mM glutamine, 20 mM HEPES and Penicillin-streptomycin (1%) in a final volume of 2 ml. As a negative control PBMC were incubated with medium alone. The PBMC were cultured at 37° C. in an atmosphere of 5% CO2 for 7 and 10 days. To assess proliferation at these times points cells were sampled and stained with surface marker CD4 and CD8 antibodies labelled with PE-Cy5 and efluor 450 respectively. After staining cells were fixed and analysed on a Milteny MACSQuant flow cytometer."}, "PBMCs [3]": {"test_system": "PBMCs", "experiment": "Intracellular cytokine staining of PBMCs", "format": "cell-based, human", "details": "donor 4, cultured 13 days in Enolase 241cit, restimulated; label = restimulating peptide", "procedure": "PBMC cultures were set up as detailed above. On day 14 PBMCs were washed and cultured with synthetic peptide (10 μg/ml) in the presence of brefeldin A for 20 hrs at 37° C. Cells were stained with cell surface markers CD4 and CD8 using PE-Cy5 and efluor450 labelled antibodies respectively. Cells were subsequently fixed and permeabilised and stained with IFNγ PE-Cy7 labelled antibody. After staining cells were fixed and analysed on Miltenyi MACSQuant flow cytometer."}, "splenocytes [4]": {"test_system": "splenocytes", "experiment": "Peptide immunisation and ex vivo Elispot, DP4 mice", "format": "in vivo, HHD/HLA-DP4 transgenic mouse", "details": "DP4 mice immunised with human 241-260cit"}},
  "note": "Square brackets hold non-standard residues; d marks the D form. Ends that are not written are not given here. Cit = NC(=O)NCCC[C@H](N)C(=O)O",
  "data": [
    {"substance": "VIGMDVAASEFF-CIT-SGKYDLD (VIGMDVAASEFF[Cit]SGKYDLD; listed as Homo sapiens) [Enolase 241cit]", "values": [
      {"measurement": "IFNγ response to peptide compared to media", "setting": "splenocytes [1]", "value": "significant response"},
      {"measurement": "animals surviving at day 45", "setting": "B16DR4 tumour; B16DR4 challenge, three doses of 5 μg in GM-CSF over three weeks, control 0% by day 28", "value": 70, "unit": "%"},
      {"measurement": "tumour volume, median, day 17 post tumour implant", "setting": "B16DR4 tumour; peptide immunisation after B16DR4 implant, control median 49 mm^3", "value": 0, "unit": "mm^3"},
      {"measurement": "survival after 45 days", "setting": "B16DR4 tumour; peptide immunisation after B16DR4 implant, unimmunised 15%", "value": 50, "unit": "%"},
      {"measurement": "survival rate after 60 days", "setting": "B16DP4 tumour", "value": 70, "unit": "%"},
      {"measurement": "survival at day 42", "setting": "B16iDR4; challenge 4 days prior to peptide immunisation, control 0%", "value": 90, "unit": "%"},
      {"measurement": "tumour volume, median, day 17 post tumour implant", "setting": "B16iDR4; challenge 4 days prior to peptide immunisation, control median 65 mm^3", "value": 0, "unit": "mm^3"},
      {"measurement": "survival 39 days after rechallenge", "setting": "B16iDR4; immunised survivors rechallenged with B16iDR4 at day 42, all controls dead by day 29", "value": 67, "unit": "%"},
      {"measurement": "survival time versus unimmunised control", "setting": "parental LLC2 tumour", "value": "small but significant increase in survival time"},
      {"measurement": "survival at day 60", "setting": "Pan02 DR4", "value": 50, "unit": "%"},
      {"measurement": "lymphocytes that are CFSE^lowCD4^+", "setting": "PBMCs [2]", "value": 15, "unit": "%"},
      {"measurement": "IFNγ positive CD4 cells", "setting": "PBMCs [3]", "value": 0.44, "unit": "%"},
      {"measurement": "granzyme B release in response to the cit peptide", "setting": "splenocytes [4]", "value": "show granzyme B release"}
    ]}
  ]
}
